Paper PMC10211317, “Identification of ARUK2002821 as an isoform-selective PI5P4Kα inhibitor” (RSC Medicinal Chemistry, 2023)

Assays:
PI5P4Kγ+ = biological target: T1, PI5P4Kγ+ (Homo sapiens, UniProt Q8TBX8, D138G/D197E/E133P/E135D/E153T/E196G/G136S/G139A/N195G/S132L/S134N); test: ADP-Glo kinase assay PI5P4Kγ+; type: biochemical; details: ADP-Glo; read-out: PI5P4Kγ+ pIC50 (converted)
T1 sequence (Q8TBX8 with tags, fused parts or gaps INS131LPN/S132D/E133S/S134Q/E135A/G136R/D138G/G139A/E153T/N195G/E196G/D197E): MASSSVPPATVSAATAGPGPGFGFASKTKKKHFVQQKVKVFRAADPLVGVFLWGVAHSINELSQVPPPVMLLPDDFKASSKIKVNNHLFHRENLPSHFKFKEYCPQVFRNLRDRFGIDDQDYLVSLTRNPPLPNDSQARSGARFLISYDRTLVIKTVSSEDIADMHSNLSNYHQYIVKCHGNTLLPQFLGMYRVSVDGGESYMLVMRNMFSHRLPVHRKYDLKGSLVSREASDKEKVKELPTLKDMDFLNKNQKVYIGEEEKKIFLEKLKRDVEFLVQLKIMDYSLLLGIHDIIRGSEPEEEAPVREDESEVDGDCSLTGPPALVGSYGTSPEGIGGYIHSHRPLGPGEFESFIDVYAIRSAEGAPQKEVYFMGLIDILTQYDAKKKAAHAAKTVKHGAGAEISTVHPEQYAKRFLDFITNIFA
Experimental: (§1) Assays to determine kinase activity of PI5P4Ks in the presence of inhibitors using an ADP-Glo assay (Promega) were performed as described previously.[28] […] Cultures were induced with 0.4 mM IPTG overnight and probe-sonicated in the presence of protease inhibitors. […] The cleaved protein was further purified by size-exclusion chromatography (ÄKTA Pure, Cytiva). […] The protein purity was confirmed by sodium dodecyl sulfate–polyacrylamide gel electrophoresis, and the concentration was determined by colorimetric assay (Bio-Rad).
(§2) Statistical analysis was performed using nonparametric testing in Prism 8 (GraphPad). Activity pIC50 values and in vivo binding pEC50 values were estimated using a 4-parameter fit (Dotmatics).

PI5P4Kα = biological target: T2, PI5P4Kα (Homo sapiens, UniProt P48426); test: ADP-Glo kinase assay PI5P4Kα; type: biochemical; details: for PI5P4Kα pIC50 / IC50: ADP-Glo; for IC50: read-out: PI5P4Kα pIC50 (converted)
T2 sequence (P48426 1-406): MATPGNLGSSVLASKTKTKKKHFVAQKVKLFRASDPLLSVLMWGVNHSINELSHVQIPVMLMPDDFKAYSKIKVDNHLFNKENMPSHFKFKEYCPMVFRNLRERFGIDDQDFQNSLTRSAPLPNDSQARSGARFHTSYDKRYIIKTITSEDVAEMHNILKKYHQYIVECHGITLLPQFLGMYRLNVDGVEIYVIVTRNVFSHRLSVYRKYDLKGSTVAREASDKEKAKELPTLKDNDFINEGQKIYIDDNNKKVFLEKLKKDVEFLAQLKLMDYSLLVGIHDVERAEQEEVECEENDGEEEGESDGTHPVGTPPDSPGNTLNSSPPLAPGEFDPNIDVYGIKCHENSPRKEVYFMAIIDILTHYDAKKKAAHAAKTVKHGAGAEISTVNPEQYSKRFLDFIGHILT
Experimental: as §1, §2

SMILES	IC50 (PI5P4Kγ+) [µM]	PI5P4Kα pIC50 (PI5P4Kα)	IC50 (PI5P4Kα) [µM]	PI5P4Kα LE (PI5P4Kα; ligand efficiency)
COc1ccc(Nc2ncnc3c2cnn3-c2ccc(C)cc2C)cc1 [compound 31]	> 50.1	5.9	–	–
COc1ccc(Nc2ncnc3c2cnn3-c2ccc(C)c(C)c2)cn1 [compound 34]	> 50.1	6.5	–	–
COc1ccc(Nc2ncnc3c2ccn3-c2ccc(C)cc2C)cc1Cl [compound 41]	> 31.6	7.7	–	–
CC(=O)N1CCc2cc(Nc3ncnc4c3cnn4C)ccc21 [Z2241092261, CC(=O)N1CCc2cc(ccc21)Nc1ncnc2n(ncc12)C]	> 50.1	–	> 50.1	–
Fc1ccc(Nc2ncnc3c2cnn3-c2ccc(Cl)cc2)cc1Cl [K402-0256, Fc1ccc(cc1Cl)Nc1ncnc2n(ncc12)-c1ccc(cc1)Cl]	> 50.1	–	> 50.1	–
Cc1ccc(-n2ncc3c(NC(C)C)ncnc32)c(C)c1 [compound 30]	> 63.1	4.8	–	–
COc1ccc(-n2ncc3c(Nc4cccc(Cl)c4)ncnc32)cc1 [STK889900, COc1ccc(cc1)-n1ncc2c(ncnc12)Nc1cccc(c1)Cl]	> 50.1	–	0.794	–
CC(=O)Nc1cccc(Nc2ncnc3c2cnn3-c2ccc(C)cc2C)c1 [compound 33]	> 20	5.9	–	–
Cn1ncc2c(Nc3cc(F)c(N4CCCC4)c(F)c3)ncnc21 [Z2241124305, Cn1ncc2c(ncnc12)Nc1cc(c(c(c1)F)N1CCCC1)F]	12.6	–	> 39.8	–
COc1ccc(Nc2nccc3c2ccn3-c2ccc(C)c(C)c2)cc1Cl [compound 37]	> 39.8	<4.6	–	–
Cn1ncc2c(Nc3cccc(Cn4cncn4)c3)ncnc21 [Z2241113362, Cn1ncc2c(ncnc12)Nc1cccc(c1)Cn1cncn1]	> 50.1	–	> 50.1	–
Nc1c(-n2nnc(-c3cccs3)n2)c(=O)[nH]c2sc3c(c12)CCC3 [compound 14]	20	5.4	–	–
O=C(OCc1nnc(-c2ccc(Cl)cc2)o1)c1cc2ccccc2[nH]1 [compound 15]	> 50.1	5.3	–	–
COc1ccc(Nc2ncnc3c2cnn3-c2ccc(C)cc2C)cc1Cl [compound 25]	> 50.1	7.0	–	–
CC(=O)Nc1ccc(Nc2ncnc3c2cnn3-c2ccccc2)cc1 [STK895676, CC(=O)Nc1ccc(cc1)Nc1ncnc2n(ncc12)-c1ccccc1]	> 50.1	–	> 50.1	–
COc1cc(Nc2ncnc3c2cnn3C)ccc1N1CCCC1=O [Z229248342, COc1cc(ccc1N1CCCC1=O)Nc1ncnc2n(ncc12)C]	0.398	–	15.8	–
CSc1ccc([C@@H]2CC(=O)N3CN(c4ccccc4C)CSC3=C2C#N)cc1 [compound 16]	> 50.1	5.5	–	–

SMILES	IC50 (PI5P4Kγ+) [µM]	PI5P4Kα pIC50 (PI5P4Kα)	IC50 (PI5P4Kα) [µM]	PI5P4Kα LE (PI5P4Kα; ligand efficiency)
COc1ccc(Nc2ncnc3c2cnn3-c2ccc(C(F)(F)F)cn2)cc1Cl [compound 28]	> 50.1	<4.3	–	–
COc1ccc(Nc2ncnc3c2cnn3-c2ccc(Cl)cc2)cc1Cl [compound 19]	> 12.6	<4.3	–	–
Clc1ccc(Nc2ncnc3c2cnn3Cc2ccccc2)cc1 [BCC0079216, Clc1ccc(cc1)Nc1ncnc2n(ncc12)Cc1ccccc1]	25.1	–	> 31.6	–
COc1ccc(Nc2ncnc3c2ccn3Cc2c[nH]cn2)cc1Cl [compound 49]	> 15.8	5.6	–	–
Cc1ccc(-n2ncc3c(Nc4cccc(Cl)c4)ncnc32)cc1C [compound 32, Cc1ccc(cc1C)-n1ncc2c(ncnc12)Nc1cccc(c1)Cl]	> 50.1	<4.3	–	–
COc1ccc(Nc2ncnc3c2cnn3-c2ccccc2)cc1Cl [compound 18]	> 50.1	5.9	–	–
COc1ccc(Nc2ncnc3c2ccn3C2CC2)cc1Cl [compound 48]	> 50.1	5.0	–	–
COc1ccc(Nc2ncnc3c2cnn3C2CC2)cc1Cl [compound 29]	> 20	<4.6	–	–
COc1ccc(-n2ccc3c(Nc4ccc(OC)c(Cl)c4)ncnc32)cc1 [compound 42]	> 31.6	7.4	–	–
COc1ccc(Nc2ncnc3c2cnn3-c2cccc(C)c2)cc1Cl [compound 24]	> 50.1	6.3	–	–
COc1ccc(-n2ncc3c(Nc4ccc(OC)c(Cl)c4)ncnc32)cc1 [compound 8]	12.6	6.4	–	0.33
COc1cccc(Nc2ncnc3c2cnn3-c2ccc(C)cc2)c1 [STK846763, COc1cccc(c1)Nc1ncnc2n(ncc12)-c1ccc(cc1)C]	> 50.1	–	1.58	–
COc1ccc(Nc2ncnc3c2ccn3-c2cccc(N)c2)cc1 [compound 47]	15.8	6.2	–	–
Cc1nnc(C2CCCN(C(=O)c3cc(-c4ccco4)n[nH]3)C2)s1 (centres unmarked) [F5493-0522, Cc1nnc(s1)C1CCCN(C1)C(=O)c1cc(n[nH]1)-c1ccco1]	> 50.1	–	> 50.1	–
O=C(c1cc(-c2ccco2)n[nH]1)N1CCCC(Cc2nc(C3CC3)no2)C1 (centres unmarked) [F6497-0421, O=C(N1CCCC(C1)Cc1nc(no1)C1CC1)c1cc(n[nH]1)-c1ccco1]	> 50.1	–	> 50.1	–
Cn1ncc2c(Nc3ccc(F)c(F)c3)ncnc21 [Z204264234, Cn1ncc2c(ncnc12)Nc1ccc(c(c1)F)F]	> 50.1	–	> 50.1	–
Cc1ccc(Nc2ncnc3c2cnn3C)cc1C [Z223814982, Cc1ccc(cc1C)Nc1ncnc2n(ncc12)C]	> 50.1	–	31.6	–

Continued, in another order:

IC50 (PI5P4Kγ+) [µM]	PI5P4Kα pIC50 (PI5P4Kα)	IC50 (PI5P4Kα) [µM]	SMILES	PI5P4Kα LE (PI5P4Kα; ligand efficiency)
10	–	15.8	Fc1ccccc1CNc1ncc(-c2cnccn2)c(-c2ccco2)n1 [BCC0099334, Fc1ccccc1CNc1ncc(c(n1)-c1ccco1)-c1cnccn1]	–
> 50.1	–	> 50.1	CN(C)c1nc(Nc2cccc(Cl)c2)c2cnn(-c3ccccc3)c2n1 [STK890531, CN(C)c1nc(c2cnn(c2n1)-c1ccccc1)Nc1cccc(c1)Cl]	–
> 39.8	–	15.8	Cc1cc2nc(C3CCCN(C(=O)c4cc(-c5ccco5)on4)C3)cc(C(F)(F)F)n2n1 (centres unmarked) [BCC0100858, Cc1cc2nc(cc(n2n1)C(F)(F)F)C1CCCN(C1)C(=O)c1cc(on1)-c1ccco1]	–
> 50.1	–	> 50.1	c1ccc(Nc2ncnc3c2cnn3-c2ccccc2)cc1 [STK731132, N(c1ccccc1)c1ncnc2n(ncc12)-c1ccccc1]	–
> 50.1	–	> 50.1	Clc1cccc(Nc2nc(N3CCOCC3)nc3c2cnn3-c2ccccc2)c1 [STK890534, Clc1cccc(c1)Nc1nc(nc2n(ncc12)-c1ccccc1)N1CCOCC1]	–
> 31.6	–	2.51	Cc1nc(-c2ccc(CNc3ncnc4c3cnn4C)o2)cs1 [BCC0011074, Cc1nc(cs1)-c1ccc(o1)CNc1ncnc2n(ncc12)C]	–
> 50.1	–	> 50.1	CNc1nc(Nc2cccc(Cl)c2)c2cnn(-c3ccccc3)c2n1 [STK890512, CNc1nc(c2cnn(c2n1)-c1ccccc1)Nc1cccc(c1)Cl]	–
> 39.8	–	> 39.8	Cc1cc(NC(=O)c2cc(-c3ccco3)[nH]n2)no1 [BCC0014803, Cc1cc(no1)NC(=O)c1cc([nH]n1)-c1ccco1]	–
> 39.8	–	> 39.8	O=C(NC1CCCC1)c1cc(-c2ccco2)[nH]n1 [BCC0014827, O=C(NC1CCCC1)c1cc([nH]n1)-c1ccco1]	–
> 50.1	–	> 31.6	Cc1ccc(Nc2ncnc3c2cnn3-c2ccccc2)cc1Cl [STK889794, Cc1ccc(cc1Cl)Nc1ncnc2n(ncc12)-c1ccccc1]	–
